According to patent US7416741B2, “Copper lowering treatment of inflammatory and fibrotic diseases” (The Regents of the University of Michigan, priority 2002, dated 2008):

Key:
[1] = In vitro copper complexing studies; conditions: compared with ammonium salt of TM
[2] = Solubility and stability of TM salts; conditions: other salts of TM
From the text: Thus, other salts have been prepared and evaluated for solubility, stability and anticopper activity.

[3] = system: hAPP tg mice; conditions: pharmacologic treatment of hAPP tg mice; cited from earlier work
[4] = system: Wilson's disease patients; conditions: cited from earlier work
[5] = system: bleomycin mouse model; conditions: in vivo; cited from earlier work
[6] = system: Wilson's disease patients; conditions: at cupruresis of 2-3 mg
Method: Ingestion of copper is about 1 mg/day, with obligatory, non-urine losses of about 0.5 mg.

[7] = system: cancer patients; conditions: cited from earlier work
[8] = therapeutic dose 1,000-2,000 mg/day

Compound: CCC[N+](CCC)(CCC)CCC.CCC[N+](CCC)(CCC)CCC.[S]=[Mo](=[S])([S-])[S-] [TPTM, tetrapropyl tetrathiomolybdate]
- in vitro copper complexing [1]: behave similarly to ammonium salt of TM
- solubility in water [2]: suitable solubility in water

Compound: C[N+](C)(C)CCO.C[N+](C)(C)CCO.[SH-].[SH-].[S]=[Mo]=[S] [choline TM]
- in vitro copper complexing [1]: behave similarly to ammonium salt of TM

Compound: Oc1c(I)cc(Cl)c2cccnc12 [clioquinol]
- amyloid pathology [3]: prevented

Compound: CC(C)Cc1ccc(C(C)C(=O)O)cc1 (centres unmarked) [ibuprofen]
- amyloid pathology [3]: prevented

Compound: CC(C)(S)[C@@H](N)C(=O)O [penicillamine]
- patients developing initial hypersensitivity syndrome ([4]; human, in vivo): about a quarter to a third of patients

Compound: Cc1ccc(=O)n(-c2ccccc2)c1 [perfenidone]
- efficacy in the bleomycin mouse model [5]: effective in the bleomycin mouse model

Compound: CC[N+](CC)(CC)CC.CC[N+](CC)(CC)CC.[S]=[Mo](=[S])([S-])[S-] [tetraethyl TM]
- in vitro copper complexing [1]: behave similarly to ammonium salt of TM
- solubility in water [2]: suitable solubility in water

Compound: NCCNCCNCCN [trientine]
- negative copper balance [6]: 1.5 to 2.5 mg/day
- patients with proteinuria ([4]; after several weeks of use): about 20%
- cupruresis after the first few weeks of therapy [4, 8]: 2 to 3 mg
- cupruresis, initial [4, 8]: 4 to 5 mg

Compound: CC(=O)[O-].CC(=O)[O-].[Zn+2] [zinc, zinc acetate]
- copper balance induced ([4]; Wilson's patients, average): −0.35 mg daily
- time to achieve intestinal metallothionein induction and a negative copper balance ([4]; Wilson's patients): approximately two
- time to bring urine copper and nonceruloplasmin plasma copper down to subtoxic levels ([4]; zinc therapy): six

Compound: bleomycin
- patients developing pulmonary fibrosis [7]: about 3%
